“Also recorded” adds a separate entry of the source.
Tests used:
[1] = system: mice with ALF induced by TAA; assay: Liver histology in thioacetamide (TAA) induced acute liver failure; assay type: in vivo, C57BL6/J mice; details: TAA 500 mg/kg; celastrol 2.5 mg/kg by injection; 3 days after ALF induction
Protocol: The administration of thiomacetamide (TAA) to induce liver damage is a well-known model of acute liver failure (ALF), see for example, Müller et al., “Thioacetamide-induced cirrhosis-like liver lesions in rats—usefulness and reliability of this animal model.” Exp Pathol. 1988; 34(4):229-36. Groups of C57BL6/J mice received either TAA (1000 mg/kg), TAA (500 mg/kg), or placebo by intraperitoneal injection. The group receiving TAA (500 mg/kg) was divided into two subgroups, and one group received NS by injection and the other group received celastrol by injection (2.5 mg/kg). Mice were sacrificed either one or three days after treatment. The livers of the mice were removed for histological examination (FIGS. 11A-11D).

[2] = system: mice with STZ induced diabetes; assay: Blood glucose in streptozotocin (STZ) induced diabetes model; assay type: in vivo, C57BL6/J mice; details: STZ 50 mg/kg i.p.; celastrol 2.5 mg/kg by injection from day -2, three times per week; monitored 30 days
Protocol: The administration of streptozotocin to induce pancreatic cell death is a well-known model of diabetes, see for example, Like and Rossini, “Streptozotocin-induced pancreatic insulitis: new model of diabetes mellitus.” Science. Jul. 30, 1976; 193(4251):415-7. Fasting C57BL6/J mice received 50 mg/kg streptozotocin (STZ) by intraperitoneal injection at day 0. Two days prior to (−2 day) and concurrently with STZ injection half of the mice also received celastrol by injection (2.5 mg/kg). Celastrol injections continued three times per week throughout the experiment. Blood glucose levels were monitored for 30 days after treatment (FIG. 9). […] In mice, normoglycemia is typically less than 200 mg/dL blood glucose.

NOD mice = assay: Blood glucose / diabetes incidence in NOD mouse model; assay type: in vivo
Protocol: The NOD mouse is recognized as a model for human Type1 diabetes (Anderson and Bluestone, “THE NOD MOUSE: A Model of Immune Dysregulation” Annual Review of Immunology 23: 447-485, 2005, which is incorporated by reference in its entirety). Celastrol was administered to the mice at the rate of 3.0 mg/kg body weight via intra-peritoneal injection once a week in NOD mice starting from 4 weeks of age. When mice attained 11 weeks of age, the compound was administered at the rate of 3.3 mg/kg body weight via oral gavage three times a week up to 30 weeks of age. Blood glucose levels were measured at the time of celastrol administration once a week from 4-10 weeks and three times a week from 11-30 weeks. Mice in control group were treated with placebo.

[3] = system: cytokine production in mouse blood; assay: Cytokine/chemokine levels in blood serum (Millipore 21-Plex, Luminex); assay type: in vivo, C57BL6/J mice
Protocol: Mice received either a placebo, celastrol (3.0 mg/kg), or 17-AAG (10 mg/kg) by intraperitoneal injection. Blood samples were taken from all groups of mice at 0, 1, 3, 6, 24, 48, and 72 hours after administration of the placebo, celastrol, or 17-AAG. The blood samples were analyzed for cytokine production, including the production of granulocyte-macrophage colony-stimulating factor (GM-CSF), interferon-gamma (IFN-γ), interleukin-10 (IL-10), interleukin-12 subunit beta (IL-12p40), interleukin-12 heterodimer (IL-12p70), interleukin-12 homodimer (IL-12p80), vascular endothelial growth factor (VEGF), tumor necrosis factor-alpha (TNF-α), keratinocyte derived chemokine (KC), RANTES (Regulated upon Activation, Normal T-cell Expressed, and Secreted; CCL5), monocyte chemotactic protein-1 (MCP 1), macrophage inflammatory protein (MIP1β; CCL4), interleukin-4 (IL-4), interleukin-3 (IL-3), interleukin-2 (IL-2), interleukin-1 beta (IL-1β), interleukin-1 alpha (IL-1α), interleukin-9 (IL-9), interleukin-13 (IL-13), interleukin-17 (IL-17), interleukin-6 (IL-6), and interleukin-5 (IL-5). Blood serum was analyzed using a commercially available kit (e.g., Mouse cytokine/chemokine panel: 21-Plex; Millipore). Blood serum (50 μl) was assayed in duplicate using a commercially available cytokine/chemokine detection kit from Millipore following the protocol given with the product information. The final measurement was performed using a commercially available detector (e.g., computer-operated Luminex 100 IS system) and the results were expressed as pg/ml blood serum sample. Levels of cytokines in blood were quantitated as a concentration of the total volume of the sample.

[4] = celastrol 3.0 mg/kg i.p., over the course of the experiment
[5] = celastrol 3.0 mg/kg i.p., throughout the 72 hour time course
[6] = i.p. celastrol 3.0 mg/kg or 17-AAG 10 mg/kg, 72 hour time course
[7] = i.p. celastrol 3.0 mg/kg or 17-AAG 10 mg/kg, sampled 0-72 h
[8] = i.p. celastrol 3.0 mg/kg or 17-AAG 10 mg/kg, sampled 0-72 h, vs placebo control

Structure (SMILES): CC1=C(O)C(=O)C=C2C1=CC=C1[C@@]2(C)CC[C@@]2(C)[C@@H]3C[C@](C)(C(=O)O)CC[C@]3(C)CC[C@]12C [celastrol]
- liver histology after ALF induction [1]: regression of liver injury
- blood glucose levels in STZ mice relative to STZ mice injected with saline placebo [2]: substantially lower; also recorded: normoglycemia
- mice that became hyperglycemic (more than 250 mg/dL) (NOD mice; celastrol 3.0 mg/kg i.p. once a week from 4 weeks, 3.3 mg/kg oral gavage three times a week from 11 to 30 weeks of age, at 23 weeks of age): twenty
- mice euglycemic or normoglycemic (less than 250 mg/dL) (NOD mice; same regimen, up to 30 weeks of age): Eighty
- level of GM-CSF compared to placebo control ([3]; celastrol 3.0 mg/kg i.p., 72 hour time course): elevated again between 24 and 48 hours; also recorded: elevated again 6 to 48 hours
- level of IL-9 compared to placebo control ([3]; celastrol 3.0 mg/kg i.p., after peak): remained slightly elevated up to 72 hours
- level of IL-6 compared to placebo control [3, 4]: not significantly different
- level of RANTES compared to placebo control [3, 4]: not significantly different
- level of IL-2 compared to placebo control [3, 5]: slightly elevated
- level of VEGF compared to placebo control [3, 5]: slightly elevated
- level of IL-1α compared to placebo control ([3]; celastrol 3.0 mg/kg i.p., throughout the experiment): slightly decreased
- level of IL-13 compared to placebo control ([3]; celastrol 3.0 mg/kg i.p., up to 48 hours post treatment, risen again by 72 hours): slightly elevated
- level of IL-17 compared to placebo control ([3]; i.p. celastrol 3.0 mg/kg (throughout 72 hours) or 17-AAG 10 mg/kg (up to 48 hours)): slightly elevated
- level of IFN-γ compared to placebo control [3, 6]: slightly elevated
- level of IL-5 compared to placebo control [3, 6]: not significantly different
- level of IL-12p40 compared to placebo control [3, 6]: slightly elevated
- time by which GM-CSF (elevated pre treatment) declined to placebo control levels [3, 7]: ≤ 6 h
- time by which IL-3 (slightly elevated pre treatment) declined to placebo control levels [3, 7]: ≤ 1 h
- time by which IL-4 (slightly elevated pre treatment) declined to placebo control levels [3, 7]: ≤ 1 h
- time by which MIP1β returned or declined to placebo control levels [3, 7]: ≤ 6 h
- time by which TNF-α (elevated pre treatment) declined to placebo control levels [3, 7]: ≤ 6 h
- time of peak level of IL-9 post treatment [3, 8]: around 3 hours
- time of peak level of KC post treatment [3, 8]: around 6 hours
